Here are results for three molecules from publication PMC8452096 (bioRxiv, 2021).

Data set [1] in a line: Plasma pharmacokinetics after oral administration in uninfected BALB/c mice. It is filed as in vivo.
For a further data set, the system named is SARS-CoV-2 nLUC. Nature of the data set: microbe, parasite or virus in culture. Type of data set: cell-based. To be noted: Severe acute respiratory syndrome coronavirus 2.
The subject of another data set is WT SARS-CoV-2. It is filed as cell-based.
The subject of a further data set is SARS-CoV-2 Fluc. Nature of the data set: microbe, parasite or virus in culture. Type of data set: cell-based. The following applies: Severe acute respiratory syndrome coronavirus 2, NHBE, in Homo sapiens, 24 h.
For data set [2] the following is noted: molar basis, compared with RDV; cited from earlier work.

SMILES strings stand for the structures.

Turning to `O=c1nc(NO)ccn1[C@@H]1O[C@H](CO)[C@@H](O)[C@H]1O` [NHC, β-D-N4-hydroxycytidine], the NHC plasma exposures result in data set [1] (after oral MPV 30 mg/kg or 100 mg/kg BID, BALB/c mice) is “dose proportional increases”.
On to `N#C[C@@]1(c2ccc3c(N)ncnn23)O[C@H](CO)[C@@H](O)[C@H]1O` [GS-441524], for which the EC50 in the data set with SARS-CoV-2 nLUC turned out to be 3300 nM; with SARS-CoV-2 Fluc it was 2450 nM. Besides, the “infectious virus production / viral titers” value with WT SARS-CoV-2 was “significant and dose-dependent reduction in viral titers”. For the same molecule, in data set [1] (GS-441524 after single oral GS-621763, 5 vs 20 mg/kg), the “maximal plasma concentrations (Cmax) and exposures (AUC0–24h)” value is given as “Dose proportional increases”. Further, in data set [2], the “efficiency at generating lung triphosphate, less than RDV” value was “at least 10 fold”.
As for `CCC(CC)COC(=O)[C@H](C)N[P@](=O)(OC[C@H]1O[C@@](C#N)(c2ccc3c(N)ncnn23)[C@H](O)[C@@H]1O)Oc1ccccc1` [RDV, remdesivir], the EC50 came to 280 nM with SARS-CoV-2 nLUC and 37.1 nM with SARS-CoV-2 Fluc. Besides, the “infectious virus production / viral titers” value with WT SARS-CoV-2 was “significant and dose-dependent reduction in viral titers”.
